Laboratory results published in patent US20240350402A1, “TOPICAL DRUG TREATMENT TO PREVENT OR REDUCE CORNEAL SCARRING” (The Cleveland Clinic Foundation, priority 2021, published 2024).

What was measured:
[1] = tested on: TGF beta-1; experiment: DMR model: IHC TGF beta-1 in posterior stroma; assay type: in vivo, rabbit; details: topical and/or oral losartan, one month
Description: The rabbits had general anaesthesia with 30 mg/kg ketamine hydrochloride and 5 mg/kg xylazine by IM injection. In addition, topical proparacaine hydrochloride 1% (Alcon, Ft Worth, TX, USA) was applied to each eye prior to the surgery. One cornea selected at random in each group either had sham surgery without Descemetorhexis or an 8 mm diameter central Descemet's membrane-endothelial excision. The time point of one month after surgery was selected for the study because myofibroblasts and fibrosis in the posterior cornea was maximal at this time point in a prior time course Descemetorhexis study (Sampaio et al., 2021). Descemetorhexis was performed as described in the prior study (Sampaio et al., 2021). Briefly, a wire lid speculum was placed into one eye of each rabbit and an 8 mm diameter gentian violet circle was marked on the epithelial surface for reference. A limbal entry incision was created with a 1.6 mm blade (Bausch and Lomb, Rochester, NY, USA) and 0.3 ml Healon OVD (Abbott Medical Optics Inc. Santa Ana, CA, USA) was injected into the anterior chamber. A reversed Sinskey hook (Katena, Denville, New Jersey, USA) was placed into the anterior chamber and an 8 mm diameter disc of Descemet's membrane and endothelium was excised underlying the 8 mm area previously marked on the anterior corneal surface, without a subsequent endothelial corneal transplant. […]

[2] = tested on: myofibroblast marker α-SMA; experiment: -9D PRK model: IHC stromal α-SMA pixels (ImageJ); assay type: in vivo, rabbit; details: topical 0.8 mg/ml losartan six times a day, one month
Description: Animal procedures were approved by the Institutional Animal Care and Use Committee at the Cleveland Clinic Foundation and animals were treated in accordance with the tenets of the Association for Research in Vision and Ophthalmology Statement for the Use of Animals in Ophthalmic and Vision Research. Twelve female 12- to 15-week-old New Zealand white rabbits weighing 2.5 to 3 kg each were included. Starting 24 hours prior to surgery and continuing 5 days after PRK, all rabbits received 60 mL children's liquid acetaminophen (Johnson & Johnson, Ft. Washington, PA, USA) per 1 L of drinking water. One eye of each rabbit was randomly selected to have −9.0 D (on myopia scale) PRK and received 2 drops of topical 1% proparacaine hydrochloride (Alcon, Fort Worth, TX, USA) prior to the surgery. […]
All images were converted to 300 DPI 900 pixel width×672 pixel height images with Photoshop 22.1.1 (Adobe, San Jose, CA). The mean pixels of stromal α-SMA or stromal collagen type IV were determined in a 900-pixel wide×235-pixel high rectangle (for either α-SMA or collagen type IV quantitation) with ImageJ in three sections for each cornea using the image panels showing only the color of interest. […]

CCCCc1nc(Cl)c(CO)n1Cc1ccc(-c2ccccc2-c2nn[nH]n2)cc1 [losartan]
levels of TGF beta-1 in the posterior stroma or at the posterior stromal surface compared to vehicle-treated corneas [1]: No effect | total pixels of α-SMA staining within the analyzed rectangle (mean±SEM) [2]: 120±60 pixels
